Earlier results on one substance are cited in US20210386111A1, “AEROSOLISABLE FORMULATION” (NICOVENTURES TRADING LIMITED, priority 2018, published 2021).

On to 2-hydroxy-propyl-β-cyclodextrin, for which the “solubility in water compared to base cyclodextrins such as β-cyclodextrin” value is “increased solubility in water”.
